Test results from patent US20030199671A1, “Binding molecules for Fc-region polypeptides” (priority 2001, published 2003).
Positions of bridges follow the written chain, without caps; N, C: chain ends. Residues, ends and D or L forms follow the SMILES beside them.

Assays:
[1] = target: IgG3 (Homo sapiens, UniProt P01860); type: binding; design: all human subtypes derived from myeloma patients; purchased Calbiochem 400124; host or cells: myeloma patients
How it was run: (§1)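 Steps: dilute IgG in PBST or TBST; incubate with immobilized peptide 1-1.5 h, RT; collect unbound by centrifugation; measure A280; wash three times; elute with 0.1 M sodium bicarbonate pH 8.5 and/or 0.1 M sodium citrate pH 4.0 for 30-60 min and quantitate.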

[2] = target: IgG4 (Homo sapiens, UniProt P01861); type: binding; design: all human subtypes derived from myeloma patients; purchased Calbiochem 400126; host or cells: myeloma patients
Chain of IgG4 (P01861 1-327 isoform P01861-1): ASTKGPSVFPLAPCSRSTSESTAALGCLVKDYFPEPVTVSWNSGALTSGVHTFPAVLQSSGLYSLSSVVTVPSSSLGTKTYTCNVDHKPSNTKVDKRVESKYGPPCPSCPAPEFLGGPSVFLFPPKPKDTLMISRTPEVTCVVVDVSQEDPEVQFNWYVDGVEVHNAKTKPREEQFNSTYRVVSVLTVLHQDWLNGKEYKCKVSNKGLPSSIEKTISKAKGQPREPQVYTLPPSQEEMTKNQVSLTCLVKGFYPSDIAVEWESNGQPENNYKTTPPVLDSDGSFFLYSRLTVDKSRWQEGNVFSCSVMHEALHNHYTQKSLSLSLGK
How it was run: (§2)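 Read-out is A280 of unbound IgG (1.4 mg/ml extinction coefficient), with percent bound derived against non-filtered or negative controls. Targets were incubated with immobilized peptides in PBST or TBST for 1-1.5 h at room temperature. Hydrolyzed Sepharose and immobilized Protein A serve as negative and positive controls.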

[3] = tested on: human IgG; experiment: Dynamic (mini-column) binding capacity
Protocol: These media were used to determine the effect of ligand density on human IgG binding capacity in both static (filterplate) and dynamic (mini-column) modes with commercial immobilized recombinant Protein A (Repligen, IPA400) at a single density as control.
The IgG solution was loaded onto the column at a flow rate of 0.2 ml/minute (170 cm/hr). […] At the end of the loading period, the column was washed with PBS until the absorbance at 280 nm of the column eluant returned to baseline. […] Neutralizing the pH of the eluted fractions was unnecessary since the total IgG eluted was determined by total protein absorbance at 280 nm.
To establish total media capacities, IgG was loaded onto the columns until the absorbances of the column load and flow through streams were identical (loading to full capacity). After washing the column to baseline, bound IgG was eluted and the total amount captured from this elution fraction determined. The total capacity of the media (mg IgG/ml media) as total IgG captured divided by the column bed volume was calculated.
Additionally, column capacities at 10% breakthrough were calculated from the online A280 measurements of column flowthrough streams. The A280 curves obtained for the column of interest and for an equivalent “blank” column containing hydrolyzed Sepharose FF 4 media were aligned. The difference in areas between these curves (for a retained and non-retained target) from the time of injection to the time at which the A280 value for the column of interest had risen to 10% of the maximum A280 absorbance (100%) obtained for the load solution at 100% IgG capture saturation (10% breakthrough) was graphically integrated. A standard curve was used to relate the integrated area to mg IgG bound and capacity calculated as total IgG bound divided by column bed volume.

[4] = target: T1, human IgG1 (Homo sapiens, UniProt P01857); type: binding
T1 construct: all human subtypes derived from myeloma patients; purchased Calbiochem 400120; host or cells: myeloma patients
T1 sequence (P01857 1-330 isoform P01857-1): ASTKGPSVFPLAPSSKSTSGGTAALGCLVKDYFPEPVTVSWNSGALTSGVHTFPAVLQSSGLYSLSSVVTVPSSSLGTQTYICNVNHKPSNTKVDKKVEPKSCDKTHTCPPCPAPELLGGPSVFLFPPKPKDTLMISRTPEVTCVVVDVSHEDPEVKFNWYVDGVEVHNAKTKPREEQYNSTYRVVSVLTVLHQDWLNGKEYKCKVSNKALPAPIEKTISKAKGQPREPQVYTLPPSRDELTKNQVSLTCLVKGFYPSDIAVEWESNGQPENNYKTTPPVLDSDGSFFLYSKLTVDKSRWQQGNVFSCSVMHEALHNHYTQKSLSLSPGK
How it was run: as §1

[5] = tested on: mouse IgG; type: binding
How it was run: as §2

[6] = tested on: goat IgG; type: binding
How it was run: as §2

[7] = tested on: human IgG; type: binding
How it was run: as §2

[8] = tested on: bovine IgG; type: binding
How it was run: as §2

[9] = target: T2, human IgG2 (Homo sapiens, UniProt P01859); type: binding
T2 construct: all human subtypes derived from myeloma patients; purchased Calbiochem 400122; host or cells: myeloma patients
T2 sequence (P01859 1-326 isoform P01859-1): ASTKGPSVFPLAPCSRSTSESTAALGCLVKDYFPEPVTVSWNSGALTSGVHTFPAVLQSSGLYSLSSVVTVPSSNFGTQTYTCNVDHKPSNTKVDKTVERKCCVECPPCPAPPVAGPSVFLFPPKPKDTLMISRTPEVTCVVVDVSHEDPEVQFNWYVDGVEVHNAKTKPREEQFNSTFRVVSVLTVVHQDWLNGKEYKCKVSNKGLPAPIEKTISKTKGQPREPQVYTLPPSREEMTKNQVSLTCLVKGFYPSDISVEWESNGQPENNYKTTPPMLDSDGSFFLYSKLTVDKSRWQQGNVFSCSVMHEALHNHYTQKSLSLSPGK
How it was run: as §2

[10] = Table 9, immobilized peptide, 5.0 mg/ml resin load
[11] = Table 10, elution 0.1 M sodium bicarbonate buffer, pH 8.5
[12] = Table 10, elution 0.1 M sodium citrate buffer, pH 4.0

Chain of IgG3 (P01860 1-377 isoform P01860-1): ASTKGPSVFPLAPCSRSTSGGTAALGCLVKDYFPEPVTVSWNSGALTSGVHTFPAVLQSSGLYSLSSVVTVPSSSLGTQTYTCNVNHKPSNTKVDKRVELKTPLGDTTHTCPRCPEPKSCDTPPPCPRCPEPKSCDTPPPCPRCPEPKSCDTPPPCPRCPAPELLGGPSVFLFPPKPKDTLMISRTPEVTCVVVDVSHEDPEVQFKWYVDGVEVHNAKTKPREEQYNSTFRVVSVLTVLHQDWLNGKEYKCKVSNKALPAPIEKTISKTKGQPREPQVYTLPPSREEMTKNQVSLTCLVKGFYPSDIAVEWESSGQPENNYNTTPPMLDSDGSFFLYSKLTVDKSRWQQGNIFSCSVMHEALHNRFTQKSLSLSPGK

% IgG Capture - Batch Binding, Human IgG3 [1, 10]: 0%
Human IgG3 bdg % (% of Total Load) ([1]; Table 10, batch binding): 3%
Human IgG3 elu pH 8.5 (% of Total Load) [1, 11]: 0%
Human IgG3 elu pH 4.0 (% of Total Load) [1, 12]: 0%
hIgG3 elution pH 2.5 (% of Total Load) ([1]; Table 13): 0%
hIgG3 elution pH 3.0 (% of Total Load) ([1]; Table 13): 0%
hIgG3 elution pH 3.5 (% of Total Load) ([1]; Table 13): 0%
hIgG3 elution pH 4.5 (% of Total Load) ([1]; Table 13): 0%
hIgG3 elution pH 5.5 (% of Total Load) ([1]; Table 13): 0%
hIgG3 elution pH 9.0 (% of Total Load) ([1]; Table 13): 0%
hIgG3 elution pH 9.5 (% of Total Load) ([1]; Table 13): 0%
% IgG Capture - Batch Binding, Human IgG4 [2, 10]: 82%
Human IgG4 bdg % (% of Total Load) ([2]; Table 10, batch binding): 82%
Human IgG4 elu pH 8.5 (% of Total Load) [2, 11]: 66%
Human IgG4 elu pH 4.0 (% of Total Load) [2, 12]: 54%
hIgG4 elution pH 2.5 (% of Total Load) ([2]; Table 13): 42%
hIgG4 elution pH 3.0 (% of Total Load) ([2]; Table 13): 43%
hIgG4 elution pH 3.5 (% of Total Load) ([2]; Table 13): 30%
hIgG4 elution pH 4.5 (% of Total Load) ([2]; Table 13): 10%
hIgG4 elution pH 5.5 (% of Total Load) ([2]; Table 13): 4%
hIgG4 elution pH 9.0 (% of Total Load) ([2]; Table 13): 53%
hIgG4 elution pH 9.5 (% of Total Load) ([2]; Table 13): 59%
Capacity (mg IgG/mL resin) 10% Breakthrough ([3]; Ligand Density 0.19 μM/mL): 1.1 mg IgG/mL resin
Capacity (mg IgG/mL resin) Total Dynamic ([3]; Ligand Density 0.19 μM/mL): 1.2 mg IgG/mL resin
Capacity (mg IgG/mL resin) 10% Breakthrough ([3]; Ligand Density 0.86 μM/mL): 4.4 mg IgG/mL resin
Capacity (mg IgG/mL resin) Total Dynamic ([3]; Ligand Density 0.86 μM/mL): 8.4 mg IgG/mL resin
Capacity (mg IgG/mL resin) 10% Breakthrough ([3]; Ligand Density 1.63 μM/mL): 5.9 mg IgG/mL resin
Capacity (mg IgG/mL resin) Total Dynamic ([3]; Ligand Density 1.63 μM/mL): 10.3 mg IgG/mL resin
Capacity (mg IgG/mL resin) 10% Breakthrough ([3]; Ligand Density 3.20 μM/mL): 5.5 mg IgG/mL resin
Capacity (mg IgG/mL resin) Total Dynamic ([3]; Ligand Density 3.20 μM/mL): 16.4 mg IgG/mL resin
Dynamic Cap. ([3]; Table 18, total dynamic capacity, average ligand density 1.9 μmole/ml): 13 mg/mL
% IgG Capture - Batch Binding, Human IgG1 [4, 10]: 91%
Human IgG1 bdg % (% of Total Load) ([4]; Table 10, batch binding): 91%
Human IgG1 elu pH 8.5 (% of Total Load) [4, 11]: 63%
Human IgG1 elu pH 4.0 (% of Total Load) [4, 12]: 51%
hIgG1 elution pH 2.5 (% of Total Load) ([4]; Table 13): 65%
hIgG1 elution pH 3.0 (% of Total Load) ([4]; Table 13): 69%
hIgG1 elution pH 3.5 (% of Total Load) ([4]; Table 13): 69%
hIgG1 elution pH 4.5 (% of Total Load) ([4]; Table 13): 37%
hIgG1 elution pH 5.5 (% of Total Load) ([4]; Table 13): 1%
hIgG1 elution pH 9.0 (% of Total Load) ([4]; Table 13): 65%
hIgG1 elution pH 9.5 (% of Total Load) ([4]; Table 13): 68%
% IgG Capture - Batch Binding, Mouse IgG [5]: 0%
% IgG Capture - Batch Binding, Goat IgG [6]: 0%
% IgG Capture - Batch Binding, Human IgG [7]: 84%
% IgG Capture - Batch Binding, Bovine IgG [8]: 0%
% IgG Capture - Batch Binding, Human IgG2 [9, 10]: 92%
Human IgG2 bdg % (% of Total Load) ([9]; Table 10, batch binding): 92%
Human IgG2 elu pH 8.5 (% of Total Load) [9, 11]: 54%
Human IgG2 elu pH 4.0 (% of Total Load) [9, 12]: 63%
hIgG2 elution pH 2.5 (% of Total Load) ([9]; Table 13): 71%
hIgG2 elution pH 3.0 (% of Total Load) ([9]; Table 13): 73%
hIgG2 elution pH 3.5 (% of Total Load) ([9]; Table 13): 63%
hIgG2 elution pH 4.5 (% of Total Load) ([9]; Table 13): 39%
hIgG2 elution pH 5.5 (% of Total Load) ([9]; Table 13): 1%
hIgG2 elution pH 9.0 (% of Total Load) ([9]; Table 13): 60%
hIgG2 elution pH 9.5 (% of Total Load) ([9]; Table 13): 67%
SMILES: CC[C@H](C)[C@@H]1NC(=O)[C@H](CC(C)C)NC(=O)[C@H](CCC(=O)O)NC(=O)CNC(=O)[C@H](Cc2c[nH]c3ccccc23)NC(=O)[C@H]([C@@H](C)O)NC(=O)[C@H]([C@@H](C)O)NC(=O)[C@H](Cc2ccc(O)cc2)NC(=O)[C@H](C(C)C)NC(=O)[C@@H](NC(=O)[C@H](CCSC)NC(=O)[C@H](Cc2c[nH]cn2)NC(=O)[C@H](CC(=O)O)NC(=O)[C@H](CC(=O)O)NC(=O)CNC(C)=O)CSSC[C@@H](C(=O)N[C@@H](CC(=O)O)C(=O)N[C@@H](CC(N)=O)C(=O)N[C@@H](Cc2c[nH]cn2)C(=O)N[C@@H](CCC(=O)O)C(=O)N2CCC[C@H]2C(=O)NCC(=O)N2CCC[C@H]2C(=O)N[C@@H](CCC(=O)O)C(=O)NCC(=O)NCC(=O)NCC(=O)N[C@@H](CCCCN)C(N)=O)NC(=O)[C@H](Cc2c[nH]c3ccccc23)NC1=O [DX249] (Ac-GDDHMCVYTTWGELIWCDNHEPGPEGGGK-NH2; disulfide 6-17)
